Where only a bound is given, the exact number is not on record here.

For the compound `CS(=O)(=O)c1cc(C(F)(F)F)ccc1C(=O)c1cnoc1C1CC1`, the melting point (commonly the temperature of the solid-liquid transition) worked out at 140 °C.

With `COc1ccc(C(=O)C2=NOC3C(=O)N(c4ccc(Br)cc4)C(=O)C23)cc1` (stereo not drawn), the melting point worked out at 124 °C. As for `CN(C)C(=O)Nc1cc(C(C)(C)C)on1`, the figure is 120 °C; as for `Clc1cccc2c(C#Cc3ccccc3)c3ccccc3c(C#Cc3ccccc3)c12`, 199 to 204 °C; as for `CC(C)c1ccc(C=C[N+](=O)[O-])cc1`, 35 to 38 °C.

Consider `CCOC(=O)c1[nH]c(C)c(S(=O)(=O)Cl)c1C`, for which the melting point was 150 °C. `N#CC(C(=O)OCc1ccccc1)c1cc(C(F)(F)F)ccc1[N+](=O)[O-]` (stereo not drawn) displayed a melting point of 71 °C.

With `CN(C)CCC(c1ccc(Br)cc1)c1ccccn1` (stereo not drawn), the melting point is < 25 °C. Then `CCCCC1C(=O)N(c2ccccc2)N(c2ccc(O)cc2)C1=O` (stereo not drawn), with 124 °C; and `N#CC1(N2CCCCC2)CCN(Cc2ccccc2)CC1`, with 103 to 106 °C. Then `CCOC(=O)C(CCc1ccccc1)NC1CCc2ccccc2N(CC(=O)O)C1=O` (stereo not drawn), with 148 °C.

Consider `CC1CCC(C(C)C)/C(=N\NC(N)=O)C1` (stereo not drawn), for which the melting point lay in the range of 216 to 217 °C. As for `CC(Cl)CCl` (stereo not drawn), the figure is -100 °C; as for `CC1CN(C2CCCCCCCCCCC2)CC(C)O1` (stereo not drawn), 71 °C; as for `Cc1cc(Br)cc(C)c1O`, 76 °C. As for `CC1(C)C(=O)Nc2ccccc21`, the figure is 154 °C; as for `OCc1ccc(CN2CCOCC2)cc1`, 94 °C; as for `NC(=O)Cc1cccs1`, 147 °C. In the case of `O=C(NC(Cc1ccccc1)C(=O)O)OCc1ccccc1` (stereo not drawn), the melting point was 88.5 °C.

Turning to `CC(C)(O)CCCC1=CCC(C=O)CC1` (stereo not drawn), the melting point was -30 °C.

In turn, `CN=C1CN(O)C(c2ccccc2)=c2cc(Cl)ccc2=N1` came in with a melting point of 236 °C. Regarding `CC(=O)C1=Cc2ccccc2C1`, the melting point turned out to be 122 °C. For the compound `COc1ccc(-c2nnc3n2NC(c2ccc(O)c(OC)c2)S3)cc1` (stereo not drawn), the melting point stood at 173 °C. In the case of `CC(=O)C1(O)CCC2C3CCC4CC(O)CCC4(C)C3CCC21C` (stereo not drawn), the melting point worked out at 265 °C. Then `N#CC(c1ccc(Sc2ccccc2)nn1)c1c(Cl)cccc1Cl` (stereo not drawn), with 190 °C; and `Cc1cc(Cl)cc(C=O)c1O`, with 67 to 68 °C; and `O=C(C[N+](=O)[O-])c1ccccc1`, with 101 to 106 °C.

`CC12CCC3C(CCC4CC(=NO)CCC43C)C1CCC2O` (stereo not drawn) registered a melting point of 198 to 199 °C.

Consider `N#CCOc1ccc(C2=NCCS2)cc1`, for which the melting point fell in the range of 83 to 85 °C. For `CC1CCC(C)(COC(=O)c2ccc([N+](=O)[O-])cc2)C1(C)C` (stereo not drawn), the melting point was determined as 95 °C.

`Cc1cccc(C(=O)Cl)c1C` gave a melting point of 2 °C. As for `Oc1ncc(O)c(O)n1`, the figure is 330 °C. As for `Cc1nn(Cc2ccc(C(=O)O)o2)c(C)c1Br`, the figure is 207 to 208 °C; as for `COC(=O)C(C#N)=c1sc(=C(C#N)C(=O)OC)s1`, 235 to 250 °C; as for `FC(F)(F)c1nnc(S)n1N=Cc1ccc(Cl)cc1`, 255 °C. Then `Cc1ccc(C(=O)O)c(Cl)n1`, with 160 °C.

As for `COc1ccc(C(O)C(O)c2ccccc2)cc1` (stereo not drawn), the melting point was 129 °C. Regarding `O=C1Nc2ccc(I)cc2C1=O`, the melting point came to 285 °C.

`CCCCCS(=O)CCCCC` registered a melting point of 58 °C. As for `NC(=O)c1ccc(Cl)c(Cl)c1`, the figure is 141 °C; as for `O=C(CCl)c1cccc(C(=O)CCl)c1`, 90 °C; as for `CCCCCCCCCCCCC(CCCCCCCCCCC)CCCCCCCCCCCC`, 9.7 °C. As for `Nc1ccc(S(=O)(=O)Nc2ncccn2)cc1`, the figure is 254 °C. Consider `CCCCC(O)(CCCC)CCCC`, for which the melting point stood at 20 °C. As for `CC(C)(C)c1cc(C(C)(C)C)c2oc3c(C(C)(C)C)cc(C(C)(C)C)c(=O)c-3nc2c1`, the figure is 210 °C; as for `Cc1ccc(C#N)cc1Br`, 41 °C.

In turn, `CC(=O)C12OC1CC1C3CCC4=CC(=O)CCC4(C)C3C(O)CC12C` (stereo not drawn) gave a melting point of 206 °C. As for `CC(=O)Nc1ccc(OC(=O)c2ccccc2O)cc1`, the figure is 187 °C. As for `O=C(Nc1ccc([N+](=O)[O-])cc1[N+](=O)[O-])C(F)(F)C(F)(F)C(F)(F)C(F)(F)C(F)(F)C(F)(F)C(F)(F)C(F)(F)F`, the figure is 125 °C.

The compound `Clc1c2ccccc2nc2ccccc12` returned a melting point of 121 °C. As for `COc1cncc(Br)c1`, the figure is 31 °C. `Cc1ccc(C)n1-c1cc(Cl)c([N+](=O)[O-])cc1Cl` returned a melting point of 82 to 84 °C.

Take `Cc1c(O)cc2c(c1C)OC(C)(CCCC(C)CCCC(C)CCCC(C)C)CC2` (stereo not drawn): the melting point is -3 °C. For `O=C(O)CCCCCCCCCCCCCCO`, the melting point is 97 to 99 °C.

Consider `CC(C)C(Br)C(=O)NC(N)=O` (stereo not drawn), for which the melting point came out at 154 °C. On to `OCc1ccc(O)cc1`, for which the melting point was found to be 124 °C. As for `O=C(CCl)c1ccc(F)cc1`, the figure is 48 °C; as for `Cc1nc(-c2ccccc2)c(C)s1`, 28 °C.

Consider `N#CCCN(CCO)c1ccc(N=Nc2ccc([N+](=O)[O-])cc2Cl)cc1`, for which the melting point came to 157 °C. As for `N#Cc1cc(I)ccc1F`, the figure is 72 °C; as for `Cc1ccc(N(SC(F)(Cl)Cl)S(=O)(=O)N(C)C)cc1`, 96 °C; as for `CSc1ccc([N+](=O)[O-])cc1`, 65 to 68 °C. As for `COc1ccc(SC)cc1`, the figure is 22 to 23 °C. Then `CCOC(=O)CC(=O)c1cccc([N+](=O)[O-])c1`, with 75 to 77 °C; and `O=C(O)C(Cc1ccccc1)Cc1ccccc1`, with 90 °C; and `COC(=O)[C@H](Cc1ccccc1)N=C=S`, with 34 to 36 °C. Compound `CN1Cc2c(ccc3c2OCO3)C2C(O)Cc3cc4c(cc3C21)OCO4` (stereo not drawn) gave a melting point of 136 °C. Then `CCCCC(CC)COC(=O)OOC(C)(C)C` (stereo not drawn), with -50 °C. Then `Oc1ccc(O)c(Cc2ccccc2)c1`, with 106 °C. As for `COC1CC2C3(C)CCCC2(COC3)C2C(OC(C)=O)CC3C(C)C(=O)C12C3O` (stereo not drawn), the figure is 165 °C. Compound `O=c1c(Br)c(SCc2ccccc2)cnn1-c1ccccc1` had a melting point of 137 to 138 °C. As for `CCCCCCCCCCCCCC=CC(O)C(CO)NC(=O)CCCCCCCCCCCCCCCCC` (stereo not drawn), the figure is 99 to 101 °C; as for `CCCCCCCCCCSCCCCCCCCCC`, 27 °C. As for `Clc1ccc2nc(Cl)sc2c1`, the figure is 96 °C. Then `O=C(CCCCl)c1ccc(F)cc1`, with 6 °C; and `CCCCOC(=O)C(=O)OCCCC`, with -29 °C; and `NC(c1ccccc1)c1ccccc1`, with 34 °C. Turning to `Brc1ccc(N2CCCCC2)cc1`, the melting point is 75 to 76 °C. On to `Cc1nn(C)c(Cl)c1[N+](=O)[O-]`, for which the melting point fell in the range of 75 to 77 °C. Then `COc1ccc(CC2NCC(O)C2OC(C)=O)cc1` (stereo not drawn), with 141 °C. Turning to `COc1ccccc1C(=S)N1CCOCC1`, the melting point turned out to be 86 °C.

As to `CCOC(=O)Oc1c(-c2ccccc2)[nH]c2cc([N+](=O)[O-])ccc12`, the melting point amounted to 170 °C. As for `Nc1c(Cl)cc(Cl)cc1I`, the figure is 80 °C. As for `COc1ccc(C(=O)c2cccc(OC)c2OC)cc1OC`, the figure is 118 to 120 °C; as for `NC1CONC1=O` (stereo not drawn), 156 °C; as for `Nc1cccc(C=CC(=O)c2ccccc2)c1`, 159 °C. As to `COC(=O)CC(CC(=O)OC)(c1cc(C)c(O)c(C)c1)c1cc(C)c(O)c(C)c1`, the melting point was 199 °C. The compound `COc1cc(C(C)=O)cc(OC)c1O` showed a melting point of 123 to 128 °C. Then `N#CC1C(=N)Oc2c(c(=O)oc3ccccc23)C1c1ccc(Br)cc1` (stereo not drawn), with 254 °C; and `COc1ccc(OC)c(S(N)(=O)=O)c1`, with 150 to 152 °C; and `N#CC(C#N)=C1CC(c2ccc(Cl)cc2)=C(C#N)C(=N)N1c1ccccc1`, with 290 to 295 °C. As for `Nc1nn2c(C(F)(F)F)cc(=O)[nH]c2c1/N=N/c1cccc(F)c1`, the figure is 305 to 306 °C. As for `O=C(Cl)c1cccc2c1OCCO2`, the figure is 98 to 99 °C. In turn, `BrCC=Cc1ccccc1` yielded a melting point of 26 to 32 °C.

`Cc1ccc(NC(N)=O)cc1` returned a melting point of 178 to 181 °C. Then `O=C(c1ccco1)c1noc(-c2ccc([N+](=O)[O-])cc2)c1S(=O)(=O)c1ccccc1`, with 138 °C; and `Cc1cc(C(=O)O)c(C)[nH]1`, with 200 °C; and `CC(=O)NCc1cnccc1C`, with 92 °C.

The compound `Nc1ccc(CC(=O)c2ccc(N)cc2)cc1` returned a melting point of 145 °C. As for `Cn1ncc2c(NNC3=CC(=O)c4ccccc4C3=O)ncnc21`, the figure is 226 °C; as for `C=C(C)C(=O)Oc1ccc(C(C)(C)c2ccc(OC(=O)C(=C)C)cc2)cc1`, 70 to 76 °C; as for `CC(=O)C=Cc1oc2ccc([N+](=O)[O-])cc2c1-c1ccc(C)o1`, 178 °C. In the case of `CC(C)(C)c1ccc2ccccc2c1`, the melting point was -4 °C. As for `CCCCCCCCN(C)CCCCCCCC`, the figure is -30.1 °C; as for `c1ccc(-c2cc3cc4cc(-c5ccccc5)[nH]c4cc3[nH]2)cc1`, > 270 °C. Then `CC(C)(Oc1ccc(CCNC(=O)c2ccc(Cl)cc2)cc1)C(=O)O`, with 186 °C. As for `C/C(=N\c1ccccc1)c1c(O)c2ccccc2n(-c2ccccc2)c1=O`, the figure is 184 to 185 °C. In turn, `Brc1ccc2ncccc2c1` gave a melting point of 24 °C.

For the origin of these results see a melting point compilation (Tetko et al.).
